Laboratory results published in patent publication US20120302569A1, “PHENYL-THIAZOLYL INHIBITORS OF PRO-MATRIX METALLOPROTEINASE ACTIVATION” (priority 2011, published 2012).
Structures can show the parent of a compound that is named as a salt.

Legend:
[1] = biological target: T1, proMMP9(20-445;ΔFnII) (SEQ ID NO:6) (Homo sapiens, UniProt P14780, DEL216-390); assay: ThermoFluor with proMMP9(20-445;ΔFnII); details: read-out: proMMP9(20-445; ΔFnII) (SEQ ID NO: 6) binding
T1 construct: start methionine (N); made in house; host or cells: E. coli BL21(DE3) RIL
T1 sequence (P14780 with tags, fused parts or gaps DEL216-390): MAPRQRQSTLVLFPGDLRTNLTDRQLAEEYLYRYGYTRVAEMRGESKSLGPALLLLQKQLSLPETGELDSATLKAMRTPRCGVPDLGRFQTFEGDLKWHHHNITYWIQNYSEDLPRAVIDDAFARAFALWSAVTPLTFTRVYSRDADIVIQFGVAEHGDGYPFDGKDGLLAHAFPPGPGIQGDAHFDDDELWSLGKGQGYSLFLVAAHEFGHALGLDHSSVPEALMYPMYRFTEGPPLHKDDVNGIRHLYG
Experimental: (§1) The ThermoFluor® (TF) assay is a 384-well plate-based binding assay that measures thermal stability of proteins (Biomol Screen 2001, 6, 429-40; Biochemistry 2005, 44, 5258-66). The experiments were carried out using instruments available from Johnson & Johnson Pharmaceutical Research & Development, LLC. TF dye used in all experiments was […] (1,8-ANS) (Invitrogen: A-47).
(§2) Compounds were arranged in a pre-dispensed plate (Greiner Bio-one: 781280), wherein compounds were serially diluted in 100% DMSO across 11 columns within a series. Columns 12 and 24 were used as DMSO reference and contained no compound. For multiple compound concentration-response experiments, the compound aliquots (50 nL) were robotically predispensed directly into black 384-well polypropylene PCR microplates (Abgene: TF-0384/k) using a Cartesian Hummingbird liquid handler (DigiLab, Holliston, Mass.). Following compound dispense, protein and dye solutions were added to achieve the final assay volume of 3 μL. The assay solutions were overlayed with 1 μL of silicone oil (Fluka, type DC 200: 85411) to prevent evaporation.
(§3) Assay plates were robotically loaded onto a thermostatically controlled PCR-type thermal block and then heated from 40 to 90° C. at a ramp-rate of 1° C./min for all experiments. Fluorescence was measured by continuous illumination with UV light (Hamamatsu LC6) supplied via fiber optics and filtered through a band-pass filter (380-400 nm; >6 OD cutoff). Fluorescence emission of the entire 384-well plate was detected by measuring light intensity using a CCD camera (Sensys, Roper Scientific) filtered to detect 500±25 nm, resulting in simultaneous and independent readings of all 384 wells. A single image with 20-sec exposure time was collected at each temperature, and the sum of the pixel intensity in a given area of the assay plate was recorded vs temperature and fit to standard equations to yield the Tm (J Biomol Screen 2001, 6, 429-40).
(§4) Thermodynamic parameters necessary for fitting compound binding for each proMMP were estimated by differential scanning calorimetry (DSC) and from ThermoFluor® data. The heat capacity of unfolding for each protein was estimated from the molecular weight and from ThermoFluor® dosing data.
ThermoFluor® with proMMP9(20-445;ΔFnII) (SEQ ID NO:6)
The protein sample preparations included a desalting buffer exchange step via a PD-10 gravity column (GE Healthcare). The desalting buffer exchange was performed prior to diluting the protein to the final assay concentration of 2.8 μM proMMP9(20-445;ΔFnII) (SEQ ID NO:6). The concentration of proMMP9(20-445;ΔFnII) (SEQ ID NO:6) was determined spectrophotometrically based on a calculated extinction coefficient of ε280=39880 M^−1cm^−1, a calculated molecular weight of 28.2 kDa, and calculated pI of 5.5. ThermoFluor® reference conditions were define as follows: 80 μg/mL (2.8 μM) proMMP9(20-445;ΔFnII) (SEQ ID NO:6), 50 μM 1,8-ANS, pH 7.0 Buffer (50 mM HEPES pH 7.0, 100 mM NaCl, 0.001% Tween-20, 2.5 mM MgCl2, 300 μM CaCl2). The thermodynamic parameters for proMMP9(20-445;ΔFnII) (SEQ ID NO:6) are as follows: Tm (° C.)=72 (+/−0.1), ΔUH(Tm) (cal mol^−1)=160000(+/−5000), ΔUS(Tm) (cal mol^−1 K^−1)=434, ΔUCp (cal mol^−1 K^−1)=2400.

[2] = biological target: T2, proMMP9(67-444;ΔFnII) (SEQ ID NO:5) (Homo sapiens, UniProt P14780, DEL216-390); assay: ThermoFluor with proMMP9(67-444;ΔFnII); details: read-out: proMMP9(67-444; ΔFnII) (SEQ ID NO: 5) binding
T2 construct: start methionine (N); made in house; host or cells: E. coli BL21(DE3) RIL
T2 sequence (P14780 with tags, fused parts or gaps DEL216-390): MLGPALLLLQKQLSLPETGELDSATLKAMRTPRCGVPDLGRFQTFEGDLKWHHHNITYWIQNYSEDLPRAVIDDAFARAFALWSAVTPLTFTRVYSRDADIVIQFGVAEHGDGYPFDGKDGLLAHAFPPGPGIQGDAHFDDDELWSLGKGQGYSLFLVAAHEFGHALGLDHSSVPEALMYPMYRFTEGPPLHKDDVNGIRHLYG
Experimental: as §1, §2, §3, §4
ThermoFluor® with proMMP9(67-444;ΔFnII) (SEQ ID NO:5)
The protein sample preparations had to include a desalting buffer exchange step via a PD-10 gravity column (GE Healthcare). The desalting buffer exchange was performed prior to diluting the protein to the final assay concentration of 3.5 μM proMMP9(67-444;ΔFnII) (SEQ ID NO:5). The concentration of proMMP9(67-444;ΔFnII) (SEQ ID NO:5) was determined spectrophotometrically based on a calculated extinction coefficient of ε280=33900 M^−1cm^−1, a calculated molecular weight of 22.6 kDa, and calculated pI of 5.20. ThermoFluor® reference conditions were defined as follows: 80 μg/mL (3.5 μM) proMMP9(67-444;ΔFnII) (SEQ ID NO:5), 50 μM 1,8-ANS, pH 7.0 Buffer (50 mM HEPES pH 7.0, 100 mM NaCl, 0.001% Tween-20, 2.5 mM MgCl2, 300 μM CaCl2). The thermodynamic parameters for proMMP9(67-444;ΔFnII) (SEQ ID NO:5) are as follows: Tm (° C.)=63 (+/−0.1), ΔUH(Tm) (cal mol^−1)=105000(+/−5000), ΔUS(Tm) (cal mol^−1 K^−1)=450, […].

[3] = biological target: T3, full-length proMMP9(1-707) (SEQ ID NO:1) (Homo sapiens, UniProt P14780, R574P); assay: proMMP9/MMP3 P126 Activation Assay; type: biochemical; details: proMMP9(1-707) from HEK293 cells activated by catalytic MMP3
T3 construct: made in house; host or cells: HEK293 (proMMP9, secreted); E. coli (MMP3)
Experimental: proMMP9/MMP3 P126 Activation Assay
The reaction volume was 50 μL. […] Reactivity of residual MMP3 towards P-126 substrate was minimal under these conditions.

T3 sequence (P14780 20-707 R574P): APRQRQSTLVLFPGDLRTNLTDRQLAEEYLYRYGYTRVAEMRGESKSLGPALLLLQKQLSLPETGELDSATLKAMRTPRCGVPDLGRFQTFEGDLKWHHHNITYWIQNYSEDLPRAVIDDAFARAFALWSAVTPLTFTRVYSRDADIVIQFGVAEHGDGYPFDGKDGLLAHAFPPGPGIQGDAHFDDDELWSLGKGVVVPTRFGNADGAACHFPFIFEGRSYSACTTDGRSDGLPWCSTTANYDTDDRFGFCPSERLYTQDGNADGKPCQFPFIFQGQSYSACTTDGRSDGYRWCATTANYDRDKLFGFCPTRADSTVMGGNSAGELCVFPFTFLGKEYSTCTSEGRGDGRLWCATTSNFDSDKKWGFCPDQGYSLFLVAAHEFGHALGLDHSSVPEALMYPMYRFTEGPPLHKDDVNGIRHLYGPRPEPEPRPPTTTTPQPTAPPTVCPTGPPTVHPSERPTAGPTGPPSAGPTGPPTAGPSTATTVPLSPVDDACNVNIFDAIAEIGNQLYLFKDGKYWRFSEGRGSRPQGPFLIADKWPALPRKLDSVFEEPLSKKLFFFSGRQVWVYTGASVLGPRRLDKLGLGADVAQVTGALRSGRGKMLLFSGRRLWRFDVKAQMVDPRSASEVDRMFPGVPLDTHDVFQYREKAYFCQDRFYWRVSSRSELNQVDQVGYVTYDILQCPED

Structure (SMILES) | Kd [1] | Kd [2] | IC50 [3]
CCN1CCN(c2ccc(-c3csc(Nc4cc(S(N)(=O)=O)ccc4OC(C)C)n3)cc2)CC1 [Example 4, 3-((4-(4-(4-Ethylpiperazin-1-yl)phenyl)thiazol-2-yl)amino)-4-isopropoxybenzenesulfonamide.TFA] | 110 nM | 100 nM | 85 nM
CC(C)Oc1ccc(S(N)(=O)=O)cc1Nc1nc(-c2ccc(N3CCN(C(C)C)CC3)cc2)cs1 [Example 5, 4-Isopropoxy-3-((4-(4-(4-isopropylpiperazin-1-yl)phenyl)thiazol-2-yl)amino)benzenesulfonamide.TFA] |  |  | 130 nM
CC(C)Oc1ccc(S(N)(=O)=O)cc1Nc1nc(-c2ccc(N3CCN(Cc4ccccc4)CC3)cc2)cs1 [Example 6, 3-((4-(4-(4-Benzylpiperazin-1-yl)phenyl)thiazol-2-yl)amino)-4-isopropoxybenzenesulfonamide.TFA] | 410 nM | 650 nM | 1200 nM
CC(C)Oc1ccc(C(N)=O)cc1Nc1nc(-c2ccc(N3CCN(C)CC3)cc2)cs1 [Example 8, 4-Isopropoxy-3-((4-(4-(4-methylpiperazin-1-yl)phenyl)thiazol-2-yl)amino)benzamide.TFA] | 29 nM | 67 nM | 110 nM
CCN1CCN(c2ccc(-c3csc(Nc4cc(C(N)=O)ccc4OC(C)C)n3)cc2)CC1 [Example 9, 3-((4-(4-(4-Ethylpiperazin-1-yl)phenyl)thiazol-2-yl)amino)-4-isopropoxybenzamide.TFA] | 34 nM | 94 nM | 89 nM
CC(C)Oc1ccc(C(N)=O)cc1Nc1nc(-c2ccc(N3CCN(Cc4ccccc4)CC3)cc2)cs1 [Example 11, 3-((4-(4-(4-Benzylpiperazin-1-yl)phenyl)thiazol-2-yl)amino)-4-isopropoxybenzamide.TFA] | 380 nM | 870 nM | 740 nM
CCN1CC=C(c2ccc(-c3csc(Nc4cc(S(N)(=O)=O)ccc4OC(C)C)n3)cc2)CC1 [Example 14, 3-((4-(4-(1-Ethyl-1,2,3,6-tetrahydropyridin-4-yl)phenyl)thiazol-2-yl)amino)-4-isopropoxybenzenesulfonamide.TFA] |  |  | 34 nM
CC(C)Oc1ccc(S(N)(=O)=O)cc1Nc1nc(-c2ccc(C3=CCN(C(C)C)CC3)cc2)cs1 [Example 15, 4-Isopropoxy-3-((4-(4-(1-isopropyl-1,2,3,6-tetrahydropyridin-4-yl)phenyl)thiazol-2-yl)amino)benzenesulfonamide.TFA] | 17 nM | 18 nM | 28 nM
CC(C)Oc1ccc(C(N)=O)cc1Nc1nc(-c2ccc(C3=CCNCC3)cc2)cs1 [Example 16, 4-Isopropoxy-3-((4-(4-(1,2,3,6-tetrahydropyridin-4-yl)phenyl)thiazol-2-yl)amino)benzamide.TFA] | 14 nM | 33 nM | 49 nM
CCOc1ccncc1Nc1nc(-c2ccc(C3=CCNCC3)cc2)cs1 [Example 20, N-(4-Ethoxypyridin-3-yl)-4-(4-(1,2,3,6-tetrahydropyridin-4-yl)phenyl)thiazol-2-amine.TFA] | 380 nM | 69 nM | 92 nM
CCOc1ccncc1Nc1nc(-c2ccc(C3=CCN(C)CC3)cc2)cs1 [Example 21, N-(4-Ethoxypyridin-3-yl)-4-(4-(1-methyl-1,2,3,6-tetrahydropyridin-4-yl)phenyl)thiazol-2-amine] | 400 nM | > 76000 nM | 57 nM
CC(C)Oc1ccc(S(N)(=O)=O)cc1Nc1nc(-c2ccc(C3CCNCC3)cc2)cs1 [Example 24, 4-Isopropoxy-3-((4-(4-(piperidin-4-yl)phenyl)thiazol-2-yl)amino)benzenesulfonamide.TFA] |  |  | 130 nM
CC(C)Oc1ccc(S(N)(=O)=O)cc1Nc1nc(-c2ccc(C3CCN(C)CC3)cc2)cs1 [Example 25, 4-Isopropoxy-3-((4-(4-(1-methylpiperidin-4-yl)phenyl)thiazol-2-yl)amino)benzenesulfonamide.TFA] | 27 nM | 30 nM | 69 nM
CCN1CCC(c2ccc(-c3csc(Nc4cc(S(N)(=O)=O)ccc4OC(C)C)n3)cc2)CC1 [Example 26, 3-((4-(4-(1-Ethylpiperidin-4-yl)phenyl)thiazol-2-yl)amino)-4-isopropoxybenzenesulfonamide.TFA] | 25 nM | 46 nM | 44 nM
CC(C)Oc1ccc(S(N)(=O)=O)cc1Nc1nc(-c2ccc(C3CCN(C(C)C)CC3)cc2)cs1 [Example 27, 4-Isopropoxy-3-((4-(4-(1-isopropylpiperidin-4-yl)phenyl)thiazol-2-yl)amino)benzenesulfonamide.TFA] |  |  | 64 nM
CC(C)Oc1ccc(S(N)(=O)=O)cc1Nc1nc(-c2ccc(OCCN3CCOCC3)cc2)cs1 [Example 28, 4-Isopropoxy-3-((4-(4-(2-morpholinoethoxy)phenyl)thiazol-2-yl)amino)benzenesulfonamide.TFA] | 75 nM | 110 nM | 100 nM
CC(C)Oc1ccc(C(N)=O)cc1Nc1nc(-c2ccc(OCCN3CCOCC3)cc2)cs1 [Example 29, 4-Isopropoxy-3-((4-(4-(2-morpholinoethoxy)phenyl)thiazol-2-yl)amino)benzamide.TFA] | 28 nM | 100 nM | 150 nM
NS(=O)(=O)c1ccc(OC(F)(F)F)c(Nc2nc(-c3ccc(OCCN4CCOCC4)cc3)cs2)c1 [Example 30, 3-((4-(4-(2-Morpholinoethoxy)phenyl)thiazol-2-yl)amino)-4-(trifluoromethoxy)benzenesulfonamide.TFA] | 1200 nM | 1300 nM | 1100 nM
